# US4663329A, “Thienopyridinone derivatives and anti-bacterial compositions containing them” (Sanofi, priority 1984, dated 1987)
# Like-named read-outs stand apart in the source and are kept apart here.
# Legend:
# Type in all cases: cell-based
# [1] = test system: Staphylococcus aureus 53154 IP; experiment: In vitro antibacterial activity, MIC, Staphylococcus aureus 53154 IP
# Method: (§1) Tests carried out in vitro in accordance with the experimental procedure described hereunder have provided evidence of the antibacterial activity in question.
# (§2) For this purpose, the M.I.C. were determined i.e. the minimal inhibiting concentrations of the compound under study acting on the growth of the bacteria at 37° C.
# (§3) The serial dilutions method was used utilizing a MUELLER HINTON gelose medium at pH=7.4 and a bacterial inoculum of 10^4 units forming colonies. This inoculum was applied to the gelose by means of a multiple sowing device.
# (§4) A scale of concentrations ranging from 100 to 0.05 μg/ml of compound to be studied was used starting from mother solutions titrating 1000 μg/ml, all the subsequent dilutions being effected in distilled water.
# [2] = test system: Streptococcus faecalis 5855 IP; experiment: In vitro antibacterial activity, MIC, Streptococcus faecalis 5855 IP; conditions: 37° C.
# Method: as §1, §2, §3, §4
# [3] = test system: Bacillus subtilis ATCC 6633; experiment: In vitro antibacterial activity, MIC, Bacillus subtilis ATCC 6633
# Method: as §1, §2, §3, §4
# [4] = test system: Escherichia coli 54127 IP; experiment: In vitro antibacterial activity, MIC, Escherichia coli 54127 IP
# Method: as §1, §2, §3, §4
# [5] = test system: Escherichia coli SOL RL 90; experiment: In vitro antibacterial activity, MIC, Escherichia coli SOL RL 90
# Method: as §1, §2, §3, §4
# [6] = test system: Citrobacter freundii GN 346; experiment: In vitro antibacterial activity, MIC, Citrobacter freundii GN 346
# Method: as §1, §2, §3, §4
# [7] = test system: Proteus vulgaris RL 99 bis; experiment: In vitro antibacterial activity, MIC, Proteus vulgaris RL 99 bis; conditions: Proteus vulgaris RL 99 bis, 37° C., pH=7.4, inoculum 10^4
# Method: as §1, §2, §3, §4
# [8] = test system: Proteus mirabilis ATCC 21100; experiment: In vitro antibacterial activity, MIC, Proteus mirabilis ATCC 21100
# Method: as §1, §2, §3, §4
# Proteus morganii 1510 = experiment: In vitro antibacterial activity, MIC, Proteus morganii 1510
# Method: as §1, §2, §3, §4
# [9] = test system: Providencia stuartii 5158; experiment: In vitro antibacterial activity, MIC, Providencia stuartii 5158
# Method: as §1, §2, §3, §4
# [10] = test system: Serratia liquefaciens 376; experiment: In vitro antibacterial activity, MIC, Serratia liquefaciens 376; conditions: 37° C.
# Method: as §1, §2, §3, §4
# [11] = test system: Klebsiella pneumoniae ATCC 10031; experiment: In vitro antibacterial activity, MIC, Klebsiella pneumoniae ATCC 10031
# Method: as §1, §2, §3, §4
# [12] = test system: Klebsiella pneumoniae R 30; experiment: In vitro antibacterial activity, MIC, Klebsiella pneumoniae R 30
# Method: as §1, §2, §3, §4
# [13] = test system: Enterobacter cloacae P 99; experiment: In vitro antibacterial activity, MIC, Enterobacter cloacae P 99
# Method: as §1, §2, §3, §4
# [14] = test system: Enterobacter hafniae RO 46; experiment: In vitro antibacterial activity, MIC, Enterobacter hafniae RO 46
# Method: as §1, §2, §3, §4
# Shigella sonnei R 018 = experiment: In vitro antibacterial activity, MIC, Shigella sonnei R 018; conditions: R018, 37° C., pH=7.4, inoculum 10^4
# Method: as §1, §2, §3, §4
# [15] = test system: Salmonella typhimurium A 222 IP; experiment: In vitro antibacterial activity, MIC, Salmonella typhimurium A 222 IP
# Method: as §1, §2, §3, §4
# [16] = test system: Salmonella typhi ATCC 6539; experiment: In vitro antibacterial activity, MIC, Salmonella typhi ATCC 6539
# Method: as §1, §2, §3, §4
# [17] = test system: Bordetella bronchiseptica ATCC 4617; experiment: In vitro antibacterial activity, MIC, Bordetella bronchiseptica ATCC 4617
# Method: as §1, §2, §3, §4
# [18] = test system: Pseudomonas aeruginosa 8203; experiment: In vitro antibacterial activity, MIC, Pseudomonas aeruginosa 8203; conditions: 37° C.
# Method: as §1, §2, §3, §4
# [19] = test system: Acinetobacter calcoaceticus C 1733; experiment: In vitro antibacterial activity, MIC, Acinetobacter calcoaceticus C 1733
# Method: as §1, §2, §3, §4
# [20] = Enterococcus faecalis, pH=7.4, inoculum 10^4, read-out: MIC
# [21] = pH=7.4, inoculum 10^4, read-out: MIC
# [22] = Salmonella enterica, TYPHIMURIUM
# [23] = ATCC4617, 37° C., pH=7.4, inoculum 10^4, read-out: MIC
# [24] = C1733, 37° C., pH=7.4, inoculum 10^4, read-out: MIC
smiles,measurement,setting,value
"CCn1cc(C(=O)O)c(=O)c2cc(C=NOC)sc21 [Compound D, 4,7-Dihydro-7-ethyl-2-methoxyiminomethyl-4-oxo-thieno[2,3-b]pyridine-5-carboxylic acid]",MIC,"[1]; Staphylococcus aureus, 53154IP",1.56 µg/mL
same,MIC,[2]; [20],> 100 µg/mL
same,MIC,"[3]; ATCC6633, Bacillus subtilis ATCC 6633, 37° C., pH=7.4, inoculum 10^4, read-out: MIC",0.78 µg/mL
same,MIC,"[4]; Escherichia coli 54127 IP, 37° C., pH=7.4, inoculum 10^4, read-out: MIC",0.78 µg/mL
same,MIC,"[5]; Escherichia coli, SOLRL90",3.12 µg/mL
same,MIC,"[6]; Citrobacter freundii, GN346",3.12 µg/mL
same,MIC,"[7]; RL99BIS, read-out: MIC",0.78 µg/mL
same,MIC,"[8]; ATCC21100, Proteus mirabilis ATCC 21100, 37° C., pH=7.4, inoculum 10^4, read-out: MIC",0.78 µg/mL
same,MIC,"Proteus morganii 1510; Morganella morganii, 1510",3.12 µg/mL
same,MIC,"[9]; Providencia stuartii, 5158",3.12 µg/mL
same,MIC,[10]; [21],50 µg/mL
same,MIC,"[11]; ATCC10031, Klebsiella pneumoniae ATCC 10031, 37° C., pH=7.4, inoculum 10^4, read-out: MIC",0.2 µg/mL
same,MIC,"[12]; Klebsiella pneumoniae, R30",3.12 µg/mL
same,MIC,"[13]; Enterobacter cloacae, P99",1.56 µg/mL
same,MIC,"[14]; Hafnia alvei, RO46",1.56 µg/mL
same,MIC,Shigella sonnei R 018,1.56 µg/mL
same,MIC,[15]; [22],3.12 µg/mL
same,MIC,[16]; Salmonella enterica,3.12 µg/mL
same,MIC,[17]; [23],12.5 µg/mL
same,MIC,[18]; [21],> 100 µg/mL
same,MIC,[19]; [24],> 100 µg/mL
"CCn1cc(C(=O)O)c(=O)c2cc(/C=N/O)sc21 [Compound B, 4,7-Dihydro-7-ethyl-2-hydroxyiminomethyl-4-oxo-thieno[2,3-b]pyridine-5-carboxylic acid, anti-isomer]",MIC,"[1]; Staphylococcus aureus 53154 IP, 37° C., pH=7.4, inoculum 10^4, read-out: MIC",12.5 µg/mL
same,MIC,[2]; [20],> 100 µg/mL
same,MIC,"[3]; Bacillus subtilis, ATCC6633",6.25 µg/mL
same,MIC,"[4]; Escherichia coli, 54127IP",3.12 µg/mL
same,MIC,"[5]; Escherichia coli, SOLRL90",3.12 µg/mL
same,MIC,"[6]; Citrobacter freundii, GN346",3.12 µg/mL
same,MIC,"[7]; RL99BIS, read-out: MIC",0.8 µg/mL
same,MIC,"[8]; Proteus mirabilis, ATCC21100",1.56 µg/mL
same,MIC,"Proteus morganii 1510; Morganella morganii, Proteus morganii 1510, 37° C., pH=7.4, inoculum 10^4, read-out: MIC",0.4 µg/mL
same,MIC,"[9]; Providencia stuartii, 5158",6.25 µg/mL
same,MIC,[10]; [21],50 µg/mL
same,MIC,"[11]; Klebsiella pneumoniae, ATCC10031",1.56 µg/mL
same,MIC,"[12]; Klebsiella pneumoniae, R30",6.25 µg/mL
same,MIC,"[13]; Enterobacter cloacae, P99",6.25 µg/mL
same,MIC,"[14]; Hafnia alvei, RO46",3.12 µg/mL
same,MIC,Shigella sonnei R 018,0.8 µg/mL
same,MIC,[15]; [22],3.12 µg/mL
same,MIC,[16]; Salmonella enterica,6.25 µg/mL
same,MIC,[17]; [23],> 100 µg/mL
same,MIC,[18]; [21],100 µg/mL
same,MIC,[19]; [24],> 100 µg/mL
"CCn1cc(C(=O)O)c(=O)c2cc(C=NOC)sc21 (single isomer, unassigned) [Compound H, 4,7-Dihydro-7-ethyl-2-methoxyiminomethyl-4-oxo-thieno[2,3-b]pyridine-5-carboxylic acid, anti-isomer]",MIC,"[1]; Staphylococcus aureus 53154 IP, 37° C., pH=7.4, inoculum 10^4",> 50 µg/mL
same,MIC,"[2]; pH=7.4, inoculum 10^4",> 100 µg/mL
same,MIC,"[3]; Bacillus subtilis ATCC 6633, 37° C., pH=7.4, inoculum 10^4",0.8 µg/mL
same,MIC,"[4]; Escherichia coli 54127 IP, 37° C., pH=7.4, inoculum 10^4",1.56 µg/mL
same,MIC,"[5]; Escherichia coli SOL RL 90, 37° C., pH=7.4, inoculum 10^4",6.25 µg/mL
same,MIC,"[6]; Citrobacter freundii GN 346, 37° C., pH=7.4, inoculum 10^4",6.25 µg/mL
same,MIC,[7],1.56 µg/mL
same,MIC,"[8]; Proteus mirabilis ATCC 21100, 37° C., pH=7.4, inoculum 10^4",0.8 µg/mL
same,MIC,"Proteus morganii 1510; Proteus morganii 1510, 37° C., pH=7.4, inoculum 10^4",0.8 µg/mL
same,MIC,"[9]; Providencia stuartii 5158, 37° C., pH=7.4, inoculum 10^4",6.25 µg/mL
same,MIC,"[10]; pH=7.4, inoculum 10^4",> 25 µg/mL
same,MIC,"[11]; Klebsiella pneumoniae ATCC 10031, 37° C., pH=7.4, inoculum 10^4",0.4 µg/mL
same,MIC,"[12]; Klebsiella pneumoniae R 30, 37° C., pH=7.4, inoculum 10^4",6.25 µg/mL
same,MIC,"[13]; Enterobacter cloacae P 99, 37° C., pH=7.4, inoculum 10^4",3.12 µg/mL
same,MIC,"[14]; Enterobacter hafniae RO 46, 37° C., pH=7.4, inoculum 10^4",3.12 µg/mL
same,MIC,"[15]; Salmonella typhimurium A 222 IP, 37° C., pH=7.4, inoculum 10^4",12.5 µg/mL
same,MIC,"[16]; Salmonella typhi ATCC 6539, 37° C., pH=7.4, inoculum 10^4",25 µg/mL
same,MIC,"[17]; 37° C., pH=7.4, inoculum 10^4",> 25 µg/mL
same,MIC,"[18]; pH=7.4, inoculum 10^4",> 25 µg/mL
same,MIC,"[19]; 37° C., pH=7.4, inoculum 10^4",> 25 µg/mL
